The values that follow come from patent US8372598B2 (priority 2010, dated 2013).

The subject of one test is Co-2164. In words: microbe, parasite or virus in culture. It counts as cell-based, Clostridium.
Another test deals with Co-5673. In words: microbe, parasite or virus in culture. It counts as cell-based, Clostridium.
The test system of the next test is strain Co-9064. In words: MIC for NaCl. It counts as cell-based, Clostridium species. Conditions: NaCl MIC determination.
For a further test, the system named is mutant 10256. The test can be described thus: Growth on agar plates with varying NaCl. Conditions: for CFU/ml: 48 hours. It counts as cell-based, Clostridium.
In the next test the test system is strain Co-1533. In words: MIC for NaCl. As to conditions: NaCl MIC determination. The class given is cell-based, Clostridium species.
For another test, the system named is mutant 10277. The test can be described thus: Growth on agar plates with varying NaCl. As to conditions: for CFU/ml: 48 hours. The class given is cell-based, Clostridium.
A further test relates to mutant 11301. In words: Growth on agar plates with varying NaCl. It counts as cell-based, Clostridium. Conditions: for CFU/ml: 48 hours.
The next test has as its system strain Co-6232. In words: MIC for NaCl. The class given is cell-based, Clostridium species. As to conditions: NaCl MIC determination.
The next test deals with mutant 11303. The test can be described thus: Growth on agar plates with varying NaCl. It counts as cell-based, Clostridium. Conditions: for CFU/ml: 48 hours.
Test [1] relates to mutants of Co-9064 selected as in Example 1. The test can be described thus: Salt MIC / growth on NaCl plates, salt selection mutants as a group. The class given is cell-based, Clostridium.
Test [2] has as its system parent Clostridium strain. In words: Growth on agar plates with varying NaCl. The class given is cell-based. As to conditions: for CFU/ml: 48 hours.
The next test deals with parent. As to conditions: OD600, parent.
For test [3], the system named is mutants of Co-9064 selected as in Example 1. As to conditions: grown at increasing concentrations of butanol, FIGS. 2A and 2B.
[4] abbreviates: Clostridium, 40 min, read-out: Survival (% of control).

Consider `CCOS(C)(=O)=O` [EMS, ethyl methane sulfonate], for which the “Survival (count)” value in the test on Co-2164 is recorded as 5.8 × 10^6 (14%); in the test with Co-5673 (30 μg/ml EMS, 40 minutes, 32° C., Co-5673) it was 3.8 × 10^6. The “higher survival rate in comparison to Co-5673” value with Co-2164 came out at 10%. The activity at 30 µg/mL in the test on Co-2164 (setting [4]) was 14%; in the test on Co-5673 (setting [4]) it was 4%.
As to `[Cl-].[Na+]` [NaCl, sodium chloride], the “highest concentration at which growth was observed” value with strain Co-9064 was 300 mM; in the test with strain Co-1533, 275 mM. Moreover, the CFU/ml entry in the test with mutant 10256 (NaCl 350 mM) is given as “lawn”; with mutant 10256 (NaCl 400 mM), “lawn”; with mutant 10256 (NaCl 425 mM), 480 CFU/ml; with mutant 10256 (NaCl 450 mM) it was 20 CFU/ml; in the test with mutant 10256 (NaCl 475 mM), 0 CFU/ml; with mutant 10277 (NaCl 350 mM), “lawn”. The CFU/ml result in the test on mutant 10277 (NaCl 400 mM) was “lawn”; in the test with mutant 10277 (NaCl 425 mM) it was 2930 CFU/ml; with mutant 10277 (NaCl 450 mM) it was 150 CFU/ml; in the test with mutant 10277 (NaCl 475 mM) it was 0 CFU/ml; in the test on mutant 11301 (NaCl 350 mM), “lawn”; with mutant 11301 (NaCl 400 mM), “lawn”. Also, the CFU/ml in the test on mutant 11301 (NaCl 425 mM) is given as 220 CFU/ml; with mutant 11301 (NaCl 450 mM) it was 30 CFU/ml; in the test on mutant 11301 (NaCl 475 mM), 0 CFU/ml; with mutant 11303 (NaCl 350 mM) it was “lawn”; with mutant 11303 (NaCl 400 mM), “lawn”; in the test on mutant 11303 (NaCl 425 mM), 800 CFU/ml. Also, the CFU/ml in the test with mutant 11303 (NaCl 450 mM) came to 10 CFU/ml; in the test with mutant 11303 (NaCl 475 mM), 0 CFU/ml; in [2] (NaCl 350 mM) it was 6000 CFU/ml; in test [2] (NaCl 400 mM), 0 CFU/ml; in [2] (NaCl 425 mM), 0 CFU/ml; in [2] (NaCl 450 mM), 0 CFU/ml. For the same compound, the CFU/ml in test [2] (NaCl 475 mM) is reported as 0 CFU/ml. Moreover, the “grew on plates containing up to” value in the test with mutant 10256 (NaCl plates, mutant 10256) is 450 mM; with mutant 10277 (NaCl plates, mutant 10277), 450 mM; in the test with mutant 11301 (NaCl plates, mutant 11301) it was 450 mM; in the test with mutant 11303 (NaCl plates, mutant 11303), 450 mM; in [2] (NaCl plates, parent strain) it was 325 mM. Moreover, the “highest concentration of salt at which growth was observed” value in the test on strain Co-6232 is reported as 325 mM. Moreover, in test [1] (mutants versus parent), the “increase of salt tolerance (salt MIC) compared to the parent strain” value is “more than 100 mM”. Further, the “growth up to” value in test [1] (solid medium, four of the mutants) is recorded as 450 mM. In addition, the “no growth at this NaCl concentration and higher” value in [2] (solid medium, parent) is at least 400 mM.
Consider n-butanol, for which the figures for the “% improvement” value with mutant #2 and in the test with mutant #1 were 69.96% and 20.89%, respectively. For the same compound, the “% of added n-butanol (v/v) at 50% inhibition” value is recorded as 1.66 % (v/v) with mutant #2, 1.18 % (v/v) in the test with mutant #1 and 0.98 % (v/v) with parent. For the same compound, in test [3], the “butanol tolerance compared to the parent strain” value was “improved butanol tolerance”.
